Laboratory results published in ChEMBL document CHEMBL4507276 (2021).

Assays:
[1] = target: Cyclin-dependent kinase 9 (Homo sapiens) (UniProt P50750); test: CDK9CYCLIN Invitrogen selectivity data (BI); conditions: Compound concentration 3.0 uM
[2] = target: MAP/microtubule affinity-regulating kinase 3 (Homo sapiens) (UniProt P27448); test: MARK3 Invitrogen selectivity data (BI); conditions: Compound concentration 3.0 uM
[3] = target: Homeodomain-interacting protein kinase 2 (Homo sapiens) (UniProt Q9H2X6); test: HIPK2 Invitrogen selectivity data (BI); conditions: Compound concentration 3.0 uM
Chain of Homeodomain-interacting protein kinase 2 (Homo sapiens) (Q9H2X6 whole entry, looked up): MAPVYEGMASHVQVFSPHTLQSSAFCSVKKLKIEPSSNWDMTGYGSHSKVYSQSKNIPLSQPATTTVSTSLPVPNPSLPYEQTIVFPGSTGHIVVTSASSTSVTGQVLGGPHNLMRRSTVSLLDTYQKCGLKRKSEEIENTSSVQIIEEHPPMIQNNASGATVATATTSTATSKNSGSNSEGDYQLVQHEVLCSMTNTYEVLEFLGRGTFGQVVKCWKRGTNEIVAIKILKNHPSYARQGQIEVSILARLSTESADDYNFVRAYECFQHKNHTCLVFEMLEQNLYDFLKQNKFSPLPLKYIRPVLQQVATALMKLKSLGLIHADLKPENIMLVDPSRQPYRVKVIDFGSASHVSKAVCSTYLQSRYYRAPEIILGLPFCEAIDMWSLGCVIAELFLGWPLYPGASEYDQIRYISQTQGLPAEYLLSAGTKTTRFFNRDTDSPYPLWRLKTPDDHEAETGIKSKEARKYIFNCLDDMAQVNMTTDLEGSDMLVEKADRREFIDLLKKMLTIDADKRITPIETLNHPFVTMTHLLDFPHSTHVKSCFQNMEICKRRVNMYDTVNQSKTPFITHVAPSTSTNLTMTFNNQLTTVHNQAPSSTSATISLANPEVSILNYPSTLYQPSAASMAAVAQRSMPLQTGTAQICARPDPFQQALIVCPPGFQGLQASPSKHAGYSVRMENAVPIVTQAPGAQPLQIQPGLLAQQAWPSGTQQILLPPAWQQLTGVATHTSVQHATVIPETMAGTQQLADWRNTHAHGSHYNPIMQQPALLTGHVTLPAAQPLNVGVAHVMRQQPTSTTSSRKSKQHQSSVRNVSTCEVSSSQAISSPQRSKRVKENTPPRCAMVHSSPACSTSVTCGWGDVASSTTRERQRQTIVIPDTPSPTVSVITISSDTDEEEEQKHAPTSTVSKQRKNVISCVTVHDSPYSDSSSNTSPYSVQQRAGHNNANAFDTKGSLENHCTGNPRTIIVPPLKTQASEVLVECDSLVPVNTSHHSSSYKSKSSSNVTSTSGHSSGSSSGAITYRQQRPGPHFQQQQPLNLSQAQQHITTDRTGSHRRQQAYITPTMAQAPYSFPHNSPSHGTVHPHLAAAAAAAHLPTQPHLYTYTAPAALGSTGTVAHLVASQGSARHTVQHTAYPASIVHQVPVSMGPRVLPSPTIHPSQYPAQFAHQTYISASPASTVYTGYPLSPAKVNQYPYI

[4] = target: T1, Beta-adrenergic receptor kinase 1 (Homo sapiens) (UniProt P25098); test: ADRBK1 Invitrogen selectivity data (BI); conditions: Compound concentration 3.0 uM
T1 sequence (whole entry): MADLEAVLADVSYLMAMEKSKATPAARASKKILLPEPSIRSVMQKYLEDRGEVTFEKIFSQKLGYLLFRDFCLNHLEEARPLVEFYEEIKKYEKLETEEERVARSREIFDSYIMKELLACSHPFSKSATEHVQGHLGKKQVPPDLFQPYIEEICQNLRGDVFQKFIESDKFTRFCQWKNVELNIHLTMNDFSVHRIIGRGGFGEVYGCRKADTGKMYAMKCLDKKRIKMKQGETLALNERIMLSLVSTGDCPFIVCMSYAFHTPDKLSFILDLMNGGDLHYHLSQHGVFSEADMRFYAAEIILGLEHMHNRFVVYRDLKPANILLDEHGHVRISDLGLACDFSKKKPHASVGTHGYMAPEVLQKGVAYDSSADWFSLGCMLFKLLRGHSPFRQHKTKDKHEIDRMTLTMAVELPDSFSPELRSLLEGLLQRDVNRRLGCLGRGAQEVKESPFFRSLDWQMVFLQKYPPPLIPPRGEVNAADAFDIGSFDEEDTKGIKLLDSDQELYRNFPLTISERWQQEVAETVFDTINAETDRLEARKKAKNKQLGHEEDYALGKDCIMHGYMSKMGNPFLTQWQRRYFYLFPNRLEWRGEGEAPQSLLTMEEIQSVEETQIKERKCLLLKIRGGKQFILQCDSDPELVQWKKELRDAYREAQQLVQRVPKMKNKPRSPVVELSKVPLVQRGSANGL

[5] = target: Interstitial collagenase (Homo sapiens) (UniProt P03956); test: MMP1 (H) Cerep selectivity data (BI); conditions: Compound concentration 20.0 uM
Chain of Interstitial collagenase (Homo sapiens) (P03956 whole entry, the tested form may be a part): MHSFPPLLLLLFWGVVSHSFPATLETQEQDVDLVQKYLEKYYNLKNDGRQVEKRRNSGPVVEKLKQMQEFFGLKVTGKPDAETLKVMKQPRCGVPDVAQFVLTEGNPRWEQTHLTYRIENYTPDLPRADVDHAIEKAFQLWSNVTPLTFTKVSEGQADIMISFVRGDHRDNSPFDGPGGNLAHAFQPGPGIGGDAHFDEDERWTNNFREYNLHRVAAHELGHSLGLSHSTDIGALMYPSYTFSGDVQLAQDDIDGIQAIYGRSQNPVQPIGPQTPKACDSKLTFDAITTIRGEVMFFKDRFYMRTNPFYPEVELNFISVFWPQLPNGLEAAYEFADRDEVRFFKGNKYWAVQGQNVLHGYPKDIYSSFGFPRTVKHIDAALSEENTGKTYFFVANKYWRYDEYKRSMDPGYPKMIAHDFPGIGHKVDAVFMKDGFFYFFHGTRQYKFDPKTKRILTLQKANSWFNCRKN

[6] = target: Phosphatidylinositol 4-phosphate 3-kinase C2 domain-containing subunit beta (Homo sapiens) (UniProt O00750); test: PIK3C2B Invitrogen selectivity data (BI); conditions: Compound concentration 3.0 uM
Chain of Phosphatidylinositol 4-phosphate 3-kinase C2 domain-containing subunit beta (Homo sapiens) (O00750 whole entry, the tested form may be a part): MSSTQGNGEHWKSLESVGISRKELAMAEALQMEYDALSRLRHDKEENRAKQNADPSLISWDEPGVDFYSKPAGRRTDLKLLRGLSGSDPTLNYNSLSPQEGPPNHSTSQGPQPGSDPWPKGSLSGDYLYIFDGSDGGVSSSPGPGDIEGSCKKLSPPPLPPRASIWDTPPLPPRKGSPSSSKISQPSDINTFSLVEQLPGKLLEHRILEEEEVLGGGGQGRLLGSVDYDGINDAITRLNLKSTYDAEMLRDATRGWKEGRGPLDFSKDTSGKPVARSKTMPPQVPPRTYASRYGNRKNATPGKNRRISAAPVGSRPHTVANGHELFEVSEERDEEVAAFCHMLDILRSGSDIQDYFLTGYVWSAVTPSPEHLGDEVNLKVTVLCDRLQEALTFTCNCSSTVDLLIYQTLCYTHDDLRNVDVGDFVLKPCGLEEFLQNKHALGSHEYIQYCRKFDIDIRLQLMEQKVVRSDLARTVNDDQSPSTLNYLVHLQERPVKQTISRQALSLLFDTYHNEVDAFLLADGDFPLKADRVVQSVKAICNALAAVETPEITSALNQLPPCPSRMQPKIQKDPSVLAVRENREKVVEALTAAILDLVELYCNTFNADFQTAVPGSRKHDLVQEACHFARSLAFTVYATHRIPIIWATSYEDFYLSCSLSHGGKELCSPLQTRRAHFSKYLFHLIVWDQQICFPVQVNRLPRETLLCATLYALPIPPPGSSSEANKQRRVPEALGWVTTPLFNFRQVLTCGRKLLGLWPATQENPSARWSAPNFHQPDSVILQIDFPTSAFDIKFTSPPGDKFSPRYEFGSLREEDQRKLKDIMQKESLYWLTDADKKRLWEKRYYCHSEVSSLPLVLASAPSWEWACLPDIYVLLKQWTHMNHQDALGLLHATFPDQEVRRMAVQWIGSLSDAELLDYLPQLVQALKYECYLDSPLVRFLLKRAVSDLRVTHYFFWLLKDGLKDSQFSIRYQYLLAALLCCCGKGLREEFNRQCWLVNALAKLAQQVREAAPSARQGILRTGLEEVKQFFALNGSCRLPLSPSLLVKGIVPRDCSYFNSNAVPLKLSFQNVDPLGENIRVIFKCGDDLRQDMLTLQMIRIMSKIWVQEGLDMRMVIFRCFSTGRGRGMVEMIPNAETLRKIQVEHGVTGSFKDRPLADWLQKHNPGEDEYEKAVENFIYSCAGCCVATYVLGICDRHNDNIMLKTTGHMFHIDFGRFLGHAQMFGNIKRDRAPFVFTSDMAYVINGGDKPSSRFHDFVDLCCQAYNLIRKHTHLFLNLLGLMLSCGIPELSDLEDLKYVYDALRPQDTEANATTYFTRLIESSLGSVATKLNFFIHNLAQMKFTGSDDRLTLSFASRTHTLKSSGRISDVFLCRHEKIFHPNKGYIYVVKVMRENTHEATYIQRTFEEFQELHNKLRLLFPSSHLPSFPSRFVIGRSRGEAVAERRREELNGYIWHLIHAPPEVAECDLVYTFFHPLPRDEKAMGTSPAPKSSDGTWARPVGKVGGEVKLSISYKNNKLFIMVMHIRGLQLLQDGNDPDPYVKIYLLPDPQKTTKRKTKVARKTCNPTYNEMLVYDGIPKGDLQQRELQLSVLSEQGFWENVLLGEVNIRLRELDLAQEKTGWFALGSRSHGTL

[7] = target: T2, Serine/threonine-protein kinase BRSK1 (Homo sapiens) (UniProt Q8TDC3); test: BRSK1 Invitrogen selectivity data (BI); conditions: Compound concentration 3.0 uM
T2 sequence (whole entry): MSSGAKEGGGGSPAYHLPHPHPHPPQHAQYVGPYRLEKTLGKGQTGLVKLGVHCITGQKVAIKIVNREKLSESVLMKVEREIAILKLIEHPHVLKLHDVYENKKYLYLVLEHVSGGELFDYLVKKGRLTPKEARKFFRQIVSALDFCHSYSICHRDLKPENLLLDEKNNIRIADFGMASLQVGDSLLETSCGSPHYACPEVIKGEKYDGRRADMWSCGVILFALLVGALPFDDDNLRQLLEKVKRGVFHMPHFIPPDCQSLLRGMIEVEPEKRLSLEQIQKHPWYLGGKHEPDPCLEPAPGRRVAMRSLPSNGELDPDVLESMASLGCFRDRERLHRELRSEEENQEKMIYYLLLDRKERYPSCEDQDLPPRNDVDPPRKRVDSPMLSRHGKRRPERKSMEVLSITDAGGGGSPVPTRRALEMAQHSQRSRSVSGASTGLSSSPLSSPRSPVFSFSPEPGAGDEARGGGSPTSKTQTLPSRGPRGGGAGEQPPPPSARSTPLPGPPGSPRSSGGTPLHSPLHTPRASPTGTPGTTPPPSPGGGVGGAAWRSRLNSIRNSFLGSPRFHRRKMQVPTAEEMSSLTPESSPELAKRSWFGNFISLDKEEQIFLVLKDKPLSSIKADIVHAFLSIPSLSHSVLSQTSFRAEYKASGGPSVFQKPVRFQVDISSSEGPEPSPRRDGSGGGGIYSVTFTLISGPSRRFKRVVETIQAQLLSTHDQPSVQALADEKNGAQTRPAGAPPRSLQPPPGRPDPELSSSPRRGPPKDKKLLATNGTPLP

[8] = target: Tyrosine-protein kinase Fer (Homo sapiens) (UniProt P16591); test: FER Invitrogen selectivity data (BI); conditions: Compound concentration 3.0 uM
[9] = target: Mitogen-activated protein kinase 3 (Homo sapiens) (UniProt P27361); test: MAPK3 Invitrogen selectivity data (BI); conditions: Compound concentration 3.0 uM
Chain of Mitogen-activated protein kinase 3 (Homo sapiens) (P27361 whole entry): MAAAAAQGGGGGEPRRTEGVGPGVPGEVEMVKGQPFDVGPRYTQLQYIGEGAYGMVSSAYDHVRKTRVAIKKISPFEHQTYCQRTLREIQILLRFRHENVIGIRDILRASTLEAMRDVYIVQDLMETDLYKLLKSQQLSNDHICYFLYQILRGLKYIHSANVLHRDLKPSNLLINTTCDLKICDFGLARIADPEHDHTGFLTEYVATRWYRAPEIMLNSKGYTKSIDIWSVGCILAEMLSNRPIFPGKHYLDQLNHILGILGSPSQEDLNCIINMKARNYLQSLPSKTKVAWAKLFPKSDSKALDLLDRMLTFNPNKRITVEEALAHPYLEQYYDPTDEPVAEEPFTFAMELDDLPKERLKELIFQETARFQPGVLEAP

[10] = target: 5-hydroxytryptamine receptor 7 (Homo sapiens) (UniProt P34969); test: 5HT7/H Cerep selectivity data (BI); conditions: Compound concentration 20.0 uM
[11] = test system: Epidermal growth factor receptor (Homo sapiens), P00533 [L858R]; test: EGFR L858R Invitrogen selectivity data (BI); conditions: Compound concentration 3.0 uM
[12] = target: T3, Tyrosine-protein kinase Tec (Homo sapiens) (UniProt P42680); test: TEC Invitrogen selectivity data (BI); conditions: Compound concentration 3.0 uM
T3 sequence (whole entry): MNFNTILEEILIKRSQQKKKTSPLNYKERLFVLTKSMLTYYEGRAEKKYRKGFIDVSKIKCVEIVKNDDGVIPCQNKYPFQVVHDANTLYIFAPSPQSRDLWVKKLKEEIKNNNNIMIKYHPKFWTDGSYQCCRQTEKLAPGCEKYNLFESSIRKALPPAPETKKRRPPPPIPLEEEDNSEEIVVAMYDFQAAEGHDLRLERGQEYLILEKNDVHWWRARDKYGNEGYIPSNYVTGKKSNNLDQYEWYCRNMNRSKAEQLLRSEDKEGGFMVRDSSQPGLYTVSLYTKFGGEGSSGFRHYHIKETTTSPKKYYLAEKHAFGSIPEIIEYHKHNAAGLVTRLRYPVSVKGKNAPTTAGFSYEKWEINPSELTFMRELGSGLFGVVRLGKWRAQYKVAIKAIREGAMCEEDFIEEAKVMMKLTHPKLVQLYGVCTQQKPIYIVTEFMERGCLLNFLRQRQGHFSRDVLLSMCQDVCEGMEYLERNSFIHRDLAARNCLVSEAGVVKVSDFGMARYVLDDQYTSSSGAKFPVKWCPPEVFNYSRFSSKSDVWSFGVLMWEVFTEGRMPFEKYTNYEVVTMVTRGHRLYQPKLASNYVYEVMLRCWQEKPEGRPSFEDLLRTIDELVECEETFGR

[13] = target: Protein kinase C zeta type (Homo sapiens) (UniProt Q05513); test: PRKCZ Invitrogen selectivity data (BI); conditions: Compound concentration 3.0 uM
Chain of Protein kinase C zeta type (Homo sapiens) (Q05513 whole entry): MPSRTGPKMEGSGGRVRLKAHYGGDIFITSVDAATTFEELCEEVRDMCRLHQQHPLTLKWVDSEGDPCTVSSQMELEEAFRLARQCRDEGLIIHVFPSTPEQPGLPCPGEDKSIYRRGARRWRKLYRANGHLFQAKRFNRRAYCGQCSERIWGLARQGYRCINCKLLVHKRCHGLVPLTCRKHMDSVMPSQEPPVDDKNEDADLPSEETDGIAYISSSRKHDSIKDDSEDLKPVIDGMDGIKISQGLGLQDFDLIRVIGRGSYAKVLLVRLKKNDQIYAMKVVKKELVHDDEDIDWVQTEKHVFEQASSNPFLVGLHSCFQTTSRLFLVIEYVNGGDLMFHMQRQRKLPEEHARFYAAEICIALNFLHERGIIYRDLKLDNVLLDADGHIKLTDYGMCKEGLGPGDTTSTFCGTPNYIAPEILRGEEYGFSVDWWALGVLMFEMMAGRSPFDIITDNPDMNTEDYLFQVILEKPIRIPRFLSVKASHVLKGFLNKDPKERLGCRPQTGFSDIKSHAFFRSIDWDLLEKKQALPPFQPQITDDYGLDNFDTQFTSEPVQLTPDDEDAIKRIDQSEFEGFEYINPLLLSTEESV

[14] = target: Epidermal growth factor receptor (Homo sapiens) (UniProt P00533); test: EGFR Invitrogen selectivity data (BI); conditions: Compound concentration 3.0 uM
[15] = target: Sodium-dependent serotonin transporter (Homo sapiens) (UniProt P31645); test: 5HTTRANS/HU Eurofins-Panlabs selectivity data (BI); conditions: Compound concentration 10.0 uM

Measured: residual activity

Chain of MAP/microtubule affinity-regulating kinase 3 (Homo sapiens) (P27448 whole entry, looked up): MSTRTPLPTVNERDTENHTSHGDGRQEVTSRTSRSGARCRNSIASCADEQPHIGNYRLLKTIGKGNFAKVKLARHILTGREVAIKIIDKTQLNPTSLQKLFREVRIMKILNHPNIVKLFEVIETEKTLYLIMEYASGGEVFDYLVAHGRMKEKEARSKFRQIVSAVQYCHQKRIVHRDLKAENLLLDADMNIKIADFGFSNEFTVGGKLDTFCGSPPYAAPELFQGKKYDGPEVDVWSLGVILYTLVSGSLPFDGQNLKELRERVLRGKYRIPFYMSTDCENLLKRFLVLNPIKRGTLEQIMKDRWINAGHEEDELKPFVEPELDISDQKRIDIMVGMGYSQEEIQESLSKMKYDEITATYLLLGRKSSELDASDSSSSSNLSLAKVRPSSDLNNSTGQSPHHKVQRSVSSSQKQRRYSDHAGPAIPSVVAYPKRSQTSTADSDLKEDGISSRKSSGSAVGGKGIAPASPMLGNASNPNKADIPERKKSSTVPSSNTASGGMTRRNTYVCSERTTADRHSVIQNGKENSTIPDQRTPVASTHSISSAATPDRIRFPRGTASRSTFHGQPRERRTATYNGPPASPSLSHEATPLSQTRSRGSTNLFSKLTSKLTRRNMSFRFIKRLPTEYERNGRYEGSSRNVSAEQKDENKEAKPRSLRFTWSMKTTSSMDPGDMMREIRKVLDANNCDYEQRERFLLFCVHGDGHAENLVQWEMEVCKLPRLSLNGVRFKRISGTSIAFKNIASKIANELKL

CN(C)C(=O)Cn1cc(-c2nc([C@@](C)(c3ccc(-c4cnc(N)nc4)cc3)C3CC3)no2)cn1 [BI 665915]
inactive: [1] 102% | [2] 98% | [3] 96% | [4] 98.5% | [5] 97% | [6] 108% | [7] 90.5% | [8] 98.5% | [9] 97% | [10] 104% | [11] 96% | [12] 103% | [13] 100% | [14] 104% | [15] 106%
